Laboratory results published in article doi:10.1101/2023.05.23.541938v1, “Exploring the Chain Release Mechanism from an Atypical Apicomplexan Polyketide Synthase” (biorxiv, 2023).

Legend:
[1] = target: T1, TgTR (TgPKS2 thioester reductase domain) (Toxoplasma gondii, UniProt Z9O203Q0F3); test: isothermal titration calorimetry; assay type: binding; conditions: 25 mM Tris-HCl pH 7.6, 25 mM NaCl, N fixed at 1
T1 construct: isolated C-terminal thioester reductase (TR) domain of TgPKS2; E. coli codon optimized, expressed in E. coli BL21(DE3) with GroES/EL-TF chaperones

[2] = target: T1, TgTR (TgPKS2 thioester reductase domain); test: thermal shift assay (SYPRO orange); assay type: binding; conditions: 1 mM compound, 3 µM TgTR, 10 mM Tris-HCl pH 8.0, 50 mM NaCl, 5% glycerol
[3] = system: TgTR (TgPKS2 thioester reductase domain); conditions: saturating octanal (2.5 mM) and NADH; N147T in domain numbering

For NC(=O)C1=CN([C@@H]2O[C@H](COP(=O)(O)OP(=O)(O)OC[C@H]3O[C@@H](n4cnc5c(N)ncnc54)[C@H](O)[C@@H]3O)[C@@H](O)[C@H]2O)C=CC1 [NADH], the Kd ([1]; no other ligand) was 7.64 ± 0.59 µM and the Tm shift [2] was “NADH, octanoyl-CoA, and octanal increased the TgTR Tm compared to the DMSO control”.

CCCCCCCC=O [octanal] was tested, and the “NADH fluorescence consumption assay, single-point relative rate” value [3] was “no significant change was observed with octanal”, the Kd ([1]; excess NADH (1 mM)) was 146 ± 31 µM and the Tm shift [2] was “NADH, octanoyl-CoA, and octanal increased the TgTR Tm compared to the DMSO control”.

CCCCCCCC(=O)SCCNC(=O)CCNC(=O)[C@H](O)C(C)(C)COP(=O)(O)OP(=O)(O)OC[C@H]1O[C@@H](n2cnc3c(N)ncnc32)[C@H](O)[C@@H]1OP(=O)(O)O [octanoyl-CoA] was tested, and the Kd ([1]; excess NADH (1 mM)) was 89.6 ± 3.9 µM and the Tm shift [2] was “NADH, octanoyl-CoA, and octanal increased the TgTR Tm compared to the DMSO control”.
